Source: patent US20070203118A1, “SUBSTITUTED TETRAHYDROISOQUINOLINES USED IN THE FORM OF MMP INHIBITORS, METHOD FOR THE PRODUCTION AND USE THEREOF IN THE FORM OF DRUGS” (SANOFI-AVENTIS DEUTSCHLAND GMBH, priority 2004, published 2007)

Tests used:
[1] = target: T1, catalytic domain of human collagenase-1 (MMP-1) (Homo sapiens, UniProt P03956); assay: Enzymatic activity of the catalytic domain of human collagenase-1 (MMP-1), fluorogenic substrate; format: biochemical
T1 construct: Determination of the Enzymatic Activity of the Catalytic Domain of Human Collagenase-1 (MMP-1); purchased Biocol, Potsdam MMP1
T1 sequence (P03956 100-269 limits assumed): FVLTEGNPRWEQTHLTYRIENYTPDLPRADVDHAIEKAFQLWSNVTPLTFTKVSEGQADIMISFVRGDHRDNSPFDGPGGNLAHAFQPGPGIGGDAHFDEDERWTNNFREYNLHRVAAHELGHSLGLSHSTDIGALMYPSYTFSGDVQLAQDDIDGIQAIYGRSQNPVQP
Experimental: Determination of the Enzymatic Activity of the Catalytic Domain of Human Collagenase-1 (MMP-1)
Activation of the Pro enzyme: 2 parts by volume of Pro enzyme are incubated with 1 part by volume of APMA solution at 37° C. for 1 hour. The APMA solution is prepared from a 10 mmol/l p-aminophenylmercuric acetate solution in 0.1 mmol/l NaOH by dilution with 3 parts by volume of tris/HCl buffer pH7.5 (see below). The pH is adjusted to between 7.0 and 7.5 by adding 1 mmol/l HCl. After activation of the enzyme, it is diluted with the tris/HCl buffer to a concentration of 2.5 μg/ml.
The enzymic activity is measured by incubating 10 μl of enzyme solution with 10 μl of a 3% strength (v/v) buffered dimethyl sulfoxide solution (reaction 1) for 15 minutes. The enzyme inhibitor activity is measured by incubating 10 μl of enzyme solution with 10 μl of a 3% strength (v/v) buffered dimethyl sulfoxide solution which contains the enzyme inhibitor (reaction 2).
The enzymic reaction both in the case of reaction 1 and in the case of reaction 2 is followed after addition of 10 μl of a 3% strength (v/v) aqueous dimethyl sulfoxide solution which contains 0.3 mmol/l of the substrate by fluorescence spectroscopy (328 nm (extinction)/393 nm (emission)), and the enzymic activity is presented as increase in extinction per minute.
The effect of the inhibitor is calculated as percentage inhibition by the following formula: % inhibition=100−[(increase in extinction/minute in reaction 2)/increase in extinction/minute in reaction 1)×100].
The IC50, i.e. the inhibitor concentration necessary for 50% inhibition of the enzymic activity, is determined graphically by plotting the percentage inhibitions at various inhibitor concentrations.
The buffer solution contains 0.05% Brij (Sigma, Deisenhofen, Germany) and 0.1 mol/l tris/HCl, 0.1 mol/l NaCl, 0.01 mol/l CaCl2 (pH=7.5).
The enzyme solution contains 2.5 μg/ml of the enzyme domain.
The substrate solution contains 0.3 mmol/l of the fluorogenic substrate (7-methoxycoumarin-4-yl)acetyl-Pro-Leu-Gly-Leu-3-(2′,4′-dinitrophenyl)-L-2,3-diaminopropionyl-Ala-Arg-NH2 (Bachem, Heidelberg, Germany).

[2] = target: T2, catalytic domain of human stromelysin (MMP-3) (Homo sapiens, UniProt P08254); assay: Enzymatic activity of the catalytic domain of human stromelysin (MMP-3), fluorogenic substrate; format: biochemical
T2 construct: Preparation and Determination of the Enzymatic Activity of the Catalytic Domain of Human Stromelysin (MMP-3); made in house
T2 sequence (P08254 100-272 limits assumed): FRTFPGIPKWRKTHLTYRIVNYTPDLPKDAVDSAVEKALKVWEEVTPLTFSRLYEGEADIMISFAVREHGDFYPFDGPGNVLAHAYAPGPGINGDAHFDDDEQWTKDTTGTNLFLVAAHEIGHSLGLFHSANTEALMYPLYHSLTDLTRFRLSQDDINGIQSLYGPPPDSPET
Experimental: Preparation and Determination of the Enzymatic Activity of the Catalytic Domain of Human Stromelysin (MMP-3) and of Neutrophil Collagenase (MMP-8)
The two enzymes stromelysin (MMP-3) and neutrophil collagenase (MMP-8) were prepared by the method of Ye et al. (Biochemistry; 31 (1992) pages 11 231-11 235). The enzymic activity or the effect of the enzyme inhibitor was measured by incubating 10 μl of enzyme solution with 10 μl of a 3% strength (v/v) buffered dimethyl sulfoxide solution which contained the enzyme inhibitor where appropriate, for 15 minutes. After addition of 10 μl of a 3% strength (v/v) aqueous dimethyl sulfoxide solution which contained 1 mmol/l of the substrate, the enzymic reaction was followed by fluorescence spectroscopy (328 nm (ex)/393 nm(em)). The enzymic activity is presented as increase in extinction/minute.
The IC50 values listed in Table 4 were determined as the inhibitor concentrations leading in each case to 50% inhibition of the enzyme. The buffer solution contained 0.05% Brij (Sigma, Deisenhofen, Germany) and 0.1 mol/l Tris/HCl, 0.1 mol/l NaCl, 0.01 mol/l CaCl2 and 0.1 mol/l piperazine-N,N′-bis[2-ethanesulfonic acid] (pH=7.5).
The MMP-3 enzyme solution contained 2.3 μg/ml and the MMP-8 enzyme solution 0.6 μg/ml of one of the enzyme domains prepared by the method of Ye et al. The substrate solution contained 1 mmol/l of the fluorogenic substrate (7-methoxycoumarin-4-yl)acetyl-Pro-Leu-Gly-Leu-3-(2′,4′-dinitrophenyl)-L-2,3-diaminopropionyl-Ala-Arg-NH2 (Bachem, Heidelberg, Germany).

Compound	IC50 [1]	IC50 [2]
O=C(NO)[C@H]1c2ccccc2CCN1S(=O)(=O)c1ccc(Oc2ccc(C(F)(F)F)cc2)cc1 [Compound 21, (R)-2-[4-(4-trifluoromethylphenoxy)benzenesulfonyl]-1,2,3,4-tetrahydro-isoquinoline-1-hydroxycarboxamide]	1 µM	0.033 µM
O=C(NO)[C@H]1c2ccccc2CCN1S(=O)(=O)c1ccc(Oc2ccc(OC(F)(F)F)cc2)nc1 [Compound 43, (R)-2-[6-(4-trifluoromethoxyphenoxy)pyridine-3-sulfonyl]-1,2,3,4-tetrahydro-isoquinoline-1-hydroxycarboxamide]	> 10 µM	0.3 µM
O=C(NO)[C@H]1c2ccccc2CCN1S(=O)(=O)c1ccc(Oc2ccc(Cl)cc2)nc1 [Compound 45, (R)-2-[6-(4-chlorophenoxy)pyridine-3-sulfonyl]-1,2,3,4-tetrahydroisoquinoline-1-hydroxycarboxamide]	2 µM	0.045 µM
O=C(NO)[C@H]1c2ccccc2CCN1S(=O)(=O)c1ccc(Oc2ccc(OCC(F)(F)F)cc2)cc1 [Compound 22]	1.6 µM	0.52 µM
COc1ccc(F)c2c1[C@H](C(=O)NO)N(S(=O)(=O)c1ccc(-c3ccc(Cl)cc3)cc1)CC2 [Compound 18]	4 µM	0.8 µM

These reach a lower IC50 [1]. Values come first.

IC50 [1]	IC50 [2]	Compound
0.5 µM	0.025 µM	O=C(NO)[C@H]1c2ccccc2CCN1S(=O)(=O)c1ccc(Oc2ccncc2)cc1 [Compound 11]
0.3 µM	0.02 µM	COc1cc2c(cc1OC)[C@@H](C(=O)NO)N(S(=O)(=O)c1ccc(-c3ccc(Cl)cc3)cc1)CC2 [Compound 15]
0.042 µM	0.023 µM	O=C(NO)[C@H]1c2ccccc2CCN1S(=O)(=O)c1ccc(Oc2ccc(Cl)cc2)cc1 [Compound 9]
0.089 µM	0.026 µM	(R)-4-(1-hydroxycarbamoyl-3,4-dihydro-1H-isoquinoline-2-sulfonyl)phenyl benzoate [Compound 48]
0.3 µM	0.023 µM	2-{2-[4-(4-fluorophenoxy)phenyl]ethanesulfonyl}-1,2,3,4-tetrahydroisoquinoline-1-hydroxycarboxamide [Compound 20]
